Data from PubChem BioAssay (NCI).
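Growth conditions: 96-well plates. Treatment: test compound, 48 hours, 5 concentrations. Analysis: linear interpolation between bracketing concentrations; unreached endpoints set to highest concentration. At the GI50, growth is halved. TGI: total growth inhibition.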

Assays:
Assay in all cases: DTP human tumour cell line panel, 48 h
HOP-92 NSCLC = tested on: HOP-92 NSCLC
U251 CNS = tested on: U251 CNS
NCI/ADR-RES ovarian = tested on: NCI/ADR-RES ovarian
MALME-3M melanoma = tested on: MALME-3M melanoma
HT29 colon = tested on: HT29 colon
HCT-116 colon = tested on: HCT-116 colon
A549 NSCLC = tested on: A549 NSCLC
OVCAR-3 ovarian = tested on: OVCAR-3 ovarian
NCI-H226 lung = tested on: NCI-H226 lung
786-0 renal = tested on: 786-0 renal
COLO 205 colon = tested on: COLO 205 colon
SK-OV-3 ovarian = tested on: SK-OV-3 ovarian
OVCAR-5 ovarian = tested on: OVCAR-5 ovarian
EKVX NSCLC = tested on: EKVX NSCLC
SK-MEL-5 melanoma = tested on: SK-MEL-5 melanoma
PC-3 prostate = tested on: PC-3 prostate
SF-295 CNS = tested on: SF-295 CNS
SK-MEL-28 melanoma = tested on: SK-MEL-28 melanoma
SNB-75 CNS = tested on: SNB-75 CNS
RXF 393 renal = tested on: RXF 393 renal
OVCAR-4 ovarian = tested on: OVCAR-4 ovarian
UACC-257 melanoma = tested on: UACC-257 melanoma
A498 renal = tested on: A498 renal
MCF7 breast = tested on: MCF7 breast
UO-31 renal = tested on: UO-31 renal
SF-539 CNS = tested on: SF-539 CNS
HCC-2998 colon = tested on: HCC-2998 colon
MDA-MB-435 = tested on: MDA-MB-435
ACHN renal = tested on: ACHN renal
RPMI-8226 leukemia = tested on: RPMI-8226 leukemia
CAKI-1 renal = tested on: CAKI-1 renal
CCRF-CEM leukemia = tested on: CCRF-CEM leukemia
TK-10 renal = tested on: TK-10 renal
SN12C renal = tested on: SN12C renal
HOP-62 NSCLC = tested on: HOP-62 NSCLC
HL-60(TB) leukemia = tested on: HL-60(TB) leukemia
DU-145 prostate = tested on: DU-145 prostate
SW-620 colon = tested on: SW-620 colon
OVCAR-8 ovarian = tested on: OVCAR-8 ovarian
SNB-19 CNS = tested on: SNB-19 CNS
SF-268 CNS = tested on: SF-268 CNS
IGROV1 ovarian = tested on: IGROV1 ovarian
M14 melanoma = tested on: M14 melanoma
K-562 leukemia = tested on: K-562 leukemia
HS 578T breast = tested on: HS 578T breast
LOX IMVI melanoma = tested on: LOX IMVI melanoma
NCI-H460 lung = tested on: NCI-H460 lung
SR leukemia = tested on: SR leukemia
MDA-MB-231 breast = tested on: MDA-MB-231 breast
HCT-15 colon = tested on: HCT-15 colon
BT-549 breast = tested on: BT-549 breast
T-47D breast = tested on: T-47D breast
UACC-62 melanoma = tested on: UACC-62 melanoma
SK-MEL-2 melanoma = tested on: SK-MEL-2 melanoma
KM12 colon = tested on: KM12 colon
MOLT-4 leukemia = tested on: MOLT-4 leukemia
NCI-H522 lung = tested on: NCI-H522 lung
NCI-H23 lung = tested on: NCI-H23 lung

## CS(=O)c1nccc(-c2c(-c3ccc(F)c(OCCc4ccc(F)cc4)c3)nc3sccn23)n1 (stereo not drawn)
HOP-92 NSCLC
  GI50: 6.72 µM
  TGI: 26.7 µM
U251 CNS
  GI50: 28.8 µM
  TGI: > 100000 nM
NCI/ADR-RES ovarian
  GI50: 20.3 µM
  TGI: 49 µM
MALME-3M melanoma
  GI50: 15.3 µM
  TGI: 33.3 µM
HT29 colon
  GI50: 14.9 µM
  TGI: 30.1 µM
HCT-116 colon
  GI50: 3520 nM
  TGI: 12.4 µM
A549 NSCLC
  GI50: > 100000 nM
  TGI: > 100 µM
OVCAR-3 ovarian
  GI50: 3450 nM
  TGI: 12.9 µM
NCI-H226 lung
  GI50: 15.5 µM
  TGI: 32.4 µM
786-0 renal
  GI50: 34.8 µM
  TGI: > 100000 nM
COLO 205 colon
  GI50: 28.4 µM
  TGI: > 100 µM
SK-OV-3 ovarian
  GI50: > 100000 nM
  TGI: > 100 µM
OVCAR-5 ovarian
  GI50: 39.9 µM
  TGI: > 100 µM
EKVX NSCLC
  GI50: 17 µM
  TGI: 42.3 µM
SK-MEL-5 melanoma
  GI50: 23.4 µM
  TGI: 58.7 µM
PC-3 prostate
  GI50: 11.9 µM
  TGI: 27.4 µM
SF-295 CNS
  GI50: > 100000 nM
  TGI: > 100000 nM
SK-MEL-28 melanoma
  GI50: 9.81 µM
  TGI: 21.5 µM
SNB-75 CNS
  GI50: 21.2 µM
  TGI: > 100 µM
RXF 393 renal
  GI50: 13.3 µM
  TGI: 26.3 µM
OVCAR-4 ovarian
  GI50: 14.7 µM
  TGI: 28.6 µM
UACC-257 melanoma
  GI50: 14.6 µM
  TGI: 29.5 µM
A498 renal
  GI50: > 100 µM
  TGI: > 100 µM
MCF7 breast
  GI50: 2020 nM
  TGI: 4.81 µM
UO-31 renal
  GI50: 1820 nM
  TGI: 4.11 µM
SF-539 CNS
  GI50: 18 µM
  TGI: 41 µM
HCC-2998 colon
  GI50: 11.7 µM
  TGI: 24.9 µM
MDA-MB-435
  GI50: 16.7 µM
  TGI: 32.2 µM
ACHN renal
  GI50: 2070 nM
  TGI: 4.37 µM
RPMI-8226 leukemia
  GI50: 4840 nM
  TGI: 28.4 µM
CAKI-1 renal
  GI50: 11.1 µM
  TGI: 23 µM
CCRF-CEM leukemia
  GI50: 5160 nM
  TGI: 24 µM
TK-10 renal
  GI50: 30.9 µM
  TGI: > 100 µM
SN12C renal
  GI50: 15.2 µM
  TGI: 33.7 µM
HOP-62 NSCLC
  GI50: 16.2 µM
  TGI: 32.2 µM
HL-60(TB) leukemia
  GI50: 2500 nM
  TGI: 6.05 µM
DU-145 prostate
  GI50: 4.13 µM
  TGI: 14.5 µM
SW-620 colon
  GI50: 3500 nM
  TGI: 14.1 µM
OVCAR-8 ovarian
  GI50: 14.3 µM
  TGI: 28 µM
SNB-19 CNS
  GI50: 14.6 µM
  TGI: 29.3 µM
SF-268 CNS
  GI50: 16.1 µM
  TGI: 32.1 µM
IGROV1 ovarian
  GI50: 2480 nM
  TGI: 6.65 µM
M14 melanoma
  GI50: 15.2 µM
  TGI: 30.4 µM
K-562 leukemia
  GI50: 3040 nM
  TGI: 11.7 µM
HS 578T breast
  GI50: 19.9 µM
  TGI: 79.6 µM
LOX IMVI melanoma
  GI50: 10.5 µM
  TGI: 23.4 µM
NCI-H460 lung
  GI50: 4.89 µM
  TGI: 17.4 µM
SR leukemia
  GI50: 4220 nM
  TGI: 28.8 µM
MDA-MB-231 breast
  GI50: 14.6 µM
  TGI: 31.9 µM
HCT-15 colon
  GI50: 3950 nM
  TGI: 16.9 µM
BT-549 breast
  GI50: 18.4 µM
  TGI: 37.5 µM
T-47D breast
  GI50: 2490 nM
  TGI: 6.12 µM
UACC-62 melanoma
  GI50: 16.1 µM
  TGI: 33.2 µM
SK-MEL-2 melanoma
  GI50: 15.6 µM
  TGI: 29.7 µM
KM12 colon
  GI50: 14.5 µM
  TGI: 29.2 µM
MOLT-4 leukemia
  GI50: 4.04 µM
  TGI: 15.8 µM
NCI-H522 lung
  GI50: 13.5 µM
  TGI: 29.7 µM

## C#C[C@]1(O)CC[C@H]2[C@@H]3CC=C4c5sc(-c6cccc(O)c6)nc5CC[C@]4(C)[C@H]3CC[C@@]21C
HOP-92 NSCLC
  GI50: 1.45 µM
  TGI: 3.07 µM
U251 CNS
  GI50: 0.688 µM
  TGI: 2960 nM
NCI/ADR-RES ovarian
  GI50: 1.95 µM
  TGI: 5.58 µM
MALME-3M melanoma
  GI50: 0.421 µM
  TGI: 2.98 µM
HT29 colon
  GI50: 3.17 µM
  TGI: 10.8 µM
HCT-116 colon
  GI50: 993 nM
  TGI: 3 µM
A549 NSCLC
  GI50: 2570 nM
  TGI: 11 µM
OVCAR-3 ovarian
  GI50: 2480 nM
  TGI: 7.46 µM
NCI-H226 lung
  GI50: 5.25 µM
  TGI: 25 µM
786-0 renal
  GI50: 0.386 µM
  TGI: 1880 nM
COLO 205 colon
  GI50: 5.41 µM
  TGI: 20.8 µM
SK-OV-3 ovarian
  GI50: 2070 nM
  TGI: 6.83 µM
OVCAR-5 ovarian
  GI50: 2.25 µM
  TGI: 5.93 µM
EKVX NSCLC
  GI50: 2.5 µM
  TGI: 10.7 µM
SK-MEL-5 melanoma
  GI50: 1.65 µM
  TGI: 3.06 µM
PC-3 prostate
  GI50: 0.357 µM
  TGI: 1.72 µM
SF-295 CNS
  GI50: 178 nM
  TGI: 437 nM
SK-MEL-28 melanoma
  GI50: 0.236 µM
  TGI: 0.64 µM
SNB-75 CNS
  GI50: 0.319 µM
  TGI: 6.1 µM
RXF 393 renal
  GI50: 0.177 µM
  TGI: 0.449 µM
OVCAR-4 ovarian
  GI50: 2.73 µM
  TGI: 9.52 µM
UACC-257 melanoma
  GI50: 1.86 µM
  TGI: 4.63 µM
A498 renal
  GI50: 15.2 µM
  TGI: 32.5 µM
MCF7 breast
  GI50: 1560 nM
  TGI: 4.39 µM
UO-31 renal
  GI50: 460 nM
  TGI: 5.75 µM
SF-539 CNS
  GI50: 0.151 µM
  TGI: 0.538 µM
HCC-2998 colon
  GI50: 1.81 µM
  TGI: 5.12 µM
MDA-MB-435
  GI50: 1.32 µM
  TGI: 3.94 µM
ACHN renal
  GI50: 687 nM
  TGI: 6.72 µM
RPMI-8226 leukemia
  GI50: 157 nM
  TGI: 0.725 µM
CAKI-1 renal
  GI50: 2.25 µM
  TGI: 5.15 µM
CCRF-CEM leukemia
  GI50: 339 nM
  TGI: > 100 µM
TK-10 renal
  GI50: 2.76 µM
  TGI: 9.19 µM
SN12C renal
  GI50: 2.3 µM
  TGI: 9.98 µM
HOP-62 NSCLC
  GI50: 1.48 µM
  TGI: 4.39 µM
HL-60(TB) leukemia
  GI50: 835 nM
  TGI: 6.12 µM
DU-145 prostate
  GI50: 2.45 µM
  TGI: 17.5 µM
SW-620 colon
  GI50: 653 nM
  TGI: 2.36 µM
OVCAR-8 ovarian
  GI50: 2.1 µM
  TGI: > 100 µM
SNB-19 CNS
  GI50: 1.26 µM
  TGI: 4.28 µM
SF-268 CNS
  GI50: 1.99 µM
  TGI: 17.5 µM
IGROV1 ovarian
  GI50: 2980 nM
  TGI: 10.3 µM
M14 melanoma
  GI50: 0.252 µM
  TGI: 0.671 µM
K-562 leukemia
  GI50: 506 nM
  TGI: > 100 µM
HS 578T breast
  GI50: 0.207 µM
  TGI: 0.642 µM
LOX IMVI melanoma
  GI50: 0.269 µM
  TGI: 1.26 µM
NCI-H460 lung
  GI50: 2.57 µM
  TGI: 7.13 µM
SR leukemia
  GI50: 460 nM
  TGI: > 100 µM
MDA-MB-231 breast
  GI50: 1.05 µM
  TGI: 4.1 µM
NCI-H23 lung
  GI50: 1550 nM
  TGI: 3.67 µM
HCT-15 colon
  GI50: 505 nM
  TGI: 1.94 µM
BT-549 breast
  GI50: 1.07 µM
  TGI: 3.47 µM
T-47D breast
  GI50: 2580 nM
  TGI: 7.27 µM
UACC-62 melanoma
  GI50: 2.3 µM
  TGI: 5.55 µM
SK-MEL-2 melanoma
  GI50: 0.528 µM
  TGI: 2.39 µM
KM12 colon
  GI50: 1.15 µM
  TGI: 5 µM
NCI-H522 lung
  GI50: 1.48 µM
  TGI: 3.58 µM
